Data set [1] deals with HER2 expression in BT-474 human breast cancer cells. Briefly: In-Cell Western assay (ICW) for HER2 expression in BT-474 cells. It counts as cell-based. The conditions noted are these: BT-474 cells, 24 h incubation, 3-fold serial dilutions, HER2 signal normalized to DRAQ5; read-out: HER2 (ICW). On the procedure: The HDCs as described herein were used in various experiments to determine their activity and properties, such as binding affinity and stability in blood. An in-Cell Western assay (ICW) for HER2 expression was carried out in BT-474 human breast cancer cells. BT-474 cells were seeded in 96-well plates at a density of 20,000 cells per well. Twenty-four hours after plating, cells were dosed with graded concentrations of HDCs using 3-fold serial dilutions and incubated for 24 h. Growth media containing drug was aspirated off. Cells were then fixed in 4% paraformaldehyde for 20 min and washed three times in 0.1% Triton X-100. After blocking for 1.5 h in Odyssey Blocking Buffer (LI-COR, Lincoln, Nebr., USA), cells were incubated with primary HER2 antibody overnight at 4° C. Wells were washed three times with 0.1% Tween-20 and incubated in secondary antibody (LI-COR, Lincoln, Nebr., USA) and DRAQ5 (CST, Beverly, Mass., USA) for 1 h. Following 3 final washes with 0.1% Tween-20, antibody-antigen complexes were visualized using the Odyssey system. For quantification, HER2 signal was normalized to DRAQ5 flourescent probe.

Data set [2] in a line: Metabolic stability in mouse whole blood (LC-MS/MS). It counts as in vitro ADME. The conditions noted are these: mouse whole blood, 10 μM, percent of test compound remaining after 1 hour, average of duplicate. On the procedure:
Metabolic stability of various HDCs was tested in mouse blood. All compounds were tested at a concentration of 10 μM. The time dependent disappearance of test compound in mouse whole blood, and the release of the compound qualitatively as determined by liquid chromatography tandem mass spectrometry (LC-MS/MS), was tested at time points of 15 minutes, 30 minutes, 45 minutes and 1 hour. All compounds were tested in duplicate, and the average was taken. The results in Table 2 show the percent of test compound remaining after 1 hour.

In data set [3] the target is Hsp90. Kind of data set: Binding affinity (Kd) by standard methods. On the procedure:
Finally, binding affinity (Kd) was determined for various HDCs using standard methods.

As to `CC(C)Nc1cc(-c2c[nH]c(C(=O)N[C@H](COC(=O)CC3CCN(C(=O)C4CCN(Cc5ccc(-n6c(O)nnc6-c6cc(C(C)C)c(O)cc6O)cc5F)CC4)CC3)c3cccc(Cl)c3)c2)c(Cl)cn1` [SDC-TRAP-0513, (S)-2-(4-(5-chloro-2-(isopropylamino)pyridin-4-yl)-1H-pyrrole-2-carboxamido)-2-(3-chlorophenyl)ethyl 2-(1-(1-(4-(3-(2,4-dihydroxy-5-isopropylphenyl)-5-hydroxy-4H-1,2,4-triazol-4-yl)-2-fluorobenzyl)piperidine-4-carbonyl)piperidin-4-yl)acetate], the IC50 in data set [1] stood at 519 nM. Further, the “Mouse blood stability 1 h (% remaining)” value in data set [2] is reported as 48.2%. The Kd in data set [3] came to 0.88 nM.
The like results for `CCNC(=O)c1nnc(-c2cc(C(C)C)c(O)cc2O)n1-c1ccc(CN2CCC(C(=O)N3CC[C@H](C(=O)OC[C@@H](NC(=O)c4cc(-c5cc(NC(C)C)ncc5Cl)c[nH]4)c4cccc(Cl)c4)C3)CC2)c(F)c1` [SDC-TRAP-0516, (S)-(S)-2-(4-(5-chloro-2-(isopropylamino)pyridin-4-yl)-1H-pyrrole-2-carboxamido)-2-(3-chlorophenyl)ethyl 1-(1-(4-(3-(2,4-dihydroxy-5-isopropylphenyl)-5-(ethylcarbamoyl)-4H-1,2,4-triazol-4-yl)-2-fluorobenzyl)piperidine-4-carbonyl)pyrrolidine-3-carboxylate] were, in that order, 123 nM, 55.5% and 1.29 nM.
For `CCNC(=O)c1nnc(-c2cc(C(C)C)c(O)cc2O)n1-c1ccc(CN2CCC(C(=O)N3CC(C(=O)OC[C@@H](NC(=O)c4cc(-c5cc(NC(C)C)ncc5Cl)c[nH]4)c4cccc(Cl)c4)C3)CC2)c(F)c1` [SDC-TRAP-0515, (S)-2-(4-(5-chloro-2-(isopropylamino)pyridin-4-yl)-1H-pyrrole-2-carboxamido)-2-(3-chlorophenyl)ethyl 1-(1-(4-(3-(2,4-dihydroxy-5-isopropylphenyl)-5-(ethylcarbamoyl)-4H-1,2,4-triazol-4-yl)-2-fluorobenzyl)piperidine-4-carbonyl)azetidine-3-carboxylate], in that order: 181 nM, 30% and 0.97 nM.
Regarding `CC(C)Nc1cc(-c2c[nH]c(C(=O)N[C@H](COC(=O)C3(NC(=O)C4CCN(Cc5ccc(-n6c(O)nnc6-c6cc(C(C)C)c(O)cc6O)cc5F)CC4)CC3)c3cccc(Cl)c3)c2)c(Cl)cn1` [SDC-TRAP-0509, (S)-2-(4-(5-chloro-2-(isopropylamino)pyridin-4-yl)-1H-pyrrole-2-carboxamido)-2-(3-chlorophenyl)ethyl 1-(1-(4-(3-(2,4-dihydroxy-5-isopropylphenyl)-5-hydroxy-4H-1,2,4-triazol-4-yl)-2-fluorobenzyl)piperidine-4-carboxamido)cyclopropanecarboxylate], the IC50 in data set [1] worked out at 2690 nM. In addition, the “Mouse blood stability 1 h (% remaining)” value in data set [2] was determined as 86.9%.
The compound `CCNC(=O)c1nnc(-c2cc(C(C)C)c(O)cc2O)n1-c1ccc(C(=O)N(C)[C@@H](C(=O)N[C@H](C(=O)N(C)C([C@@H](C)CC)[C@@H](CC(=O)N2CCC[C@@H]2[C@@H](OC)[C@@H](C)C(=O)N[C@@H](C)[C@H](O)c2ccccc2)OC)C(C)C)C(C)C)cc1` (stereo partly drawn) [SDC-TRAP-0536, 5-(2,4-dihydroxy-5-isopropylphenyl)-N-ethyl-4-(4-(((2R)-1-(((2S)-1-(((3R,5S)-1-((R)-2-((1S,2R)-3-(((1R,2S)-1-hydroxy-1-phenylpropan-2-yl)amino)-1-methoxy-2-methyl-3-oxopropyl)pyrrolidin-1-yl)-3-methoxy-5-methyl-1-oxoheptan-4-yl)(methyl)amino)-3-methyl-1-oxobutan-2-yl)amino)-3-methyl-1-oxobutan-2-yl)(methyl)carbamoyl)phenyl)-4H-1,2,4-triazole-3-carboxamide] yielded a dissociation constant Kd in data set [3] of 0.77 nM.
With `CCNC(=O)c1nnc(-c2cc(C(C)C)c(O)cc2O)n1-c1ccc(CN2CCC(C(=O)N3CCC(CC(=O)OC[C@@H](NC(=O)c4cc(-c5cc(NC(C)C)ncc5Cl)c[nH]4)c4cccc(Cl)c4)CC3)CC2)c(F)c1` [SDC-TRAP-0512, (S)-2-(4-(5-chloro-2-(isopropylamino)pyridin-4-yl)-1H-pyrrole-2-carboxamido)-2-(3-chlorophenyl)ethyl 2-(1-(1-(4-(3-(2,4-dihydroxy-5-isopropylphenyl)-5-(ethylcarbamoyl)-4H-1,2,4-triazol-4-yl)-2-fluorobenzyl)piperidine-4-carbonyl)piperidin-4-yl)acetate], in data set [1], the IC50 turned out to be 60 nM. Further, the “Mouse blood stability 1 h (% remaining)” value in data set [2] is listed as 100%.
As to `CCNC(=O)c1nnc(-c2cc(C(C)C)c(O)cc2O)n1-c1ccc(CN2CCC(C(=O)N3CCC(C(=O)OC[C@@H](NC(=O)c4cc(-c5cc(NC(C)C)ncc5Cl)c[nH]4)c4cccc(Cl)c4)CC3)CC2)c(F)c1` [SDC-TRAP-0510, (S)-2-(4-(5-chloro-2-(isopropylamino)pyridin-4-yl)-1H-pyrrole-2-carboxamido)-2-(3-chlorophenyl)ethyl 1-(1-(4-(3-(2,4-dihydroxy-5-isopropylphenyl)-5-(ethylcarbamoyl)-4H-1,2,4-triazol-4-yl)-2-fluorobenzyl)piperidine-4-carbonyl)piperidine-4-carboxylate], in data set [1], the IC50 was 91 nM. Further, the “Mouse blood stability 1 h (% remaining)” value in data set [2] was determined as 77.1%. Moreover, in data set [3], the Kd is 6.14 nM.
Turning to `CCNC(=O)c1nnc(-c2cc(C(C)C)c(O)cc2O)n1-c1ccc(CN2CCC(C(=O)NC3(C(=O)OC[C@@H](NC(=O)c4cc(-c5cc(NC(C)C)ncc5Cl)c[nH]4)c4cccc(Cl)c4)CC3)CC2)c(F)c1` [SDC-TRAP-0507, (S)-2-(4-(5-chloro-2-(isopropylamino)pyridin-4-yl)-1H-pyrrole-2-carboxamido)-2-(3-chlorophenyl)ethyl-(1-(4-(3-(2,4-dihydroxy-5-isopropylphenyl)-5-(ethylcarbamoyl)-4H-1,2,4-triazol-4-yl)-2-fluorobenzyl)piperidine-4-carboxamido)cyclopropanecarboxylate], the IC50 in data set [1] turned out to be 304 nM. Also, the “Mouse blood stability 1 h (% remaining)” value in data set [2] was determined as 105%.
For `CC(C)Nc1cc(-c2c[nH]c(C(=O)N[C@H](COC(=O)C3CCN(C(=O)C4CCN(Cc5ccc(-n6c(O)nnc6-c6cc(C(C)C)c(O)cc6O)cc5F)CC4)CC3)c3cccc(Cl)c3)c2)c(Cl)cn1` [SDC-TRAP-0511, (S)-2-(4-(5-chloro-2-(isopropylamino)pyridin-4-yl)-1H-pyrrole-2-carboxamido)-2-(3-chlorophenyl)ethyl 1-(1-(4-(3-(2,4-dihydroxy-5-isopropylphenyl)-5-hydroxy-4H-1,2,4-triazol-4-yl)-2-fluorobenzyl)piperidine-4-carbonyl)piperidine-4-carboxylate], the IC50 in data set [1] was 465 nM. Besides, the “Mouse blood stability 1 h (% remaining)” value in data set [2] was 30.8%. In addition, the Kd in data set [3] is 2.9 nM.

The values above are taken from US20190060473A1, “HSP90 INHIBITOR DRUG CONJUGATES” (priority 2016, published 2019).
